Laboratory results: the supplement of paper PMC4932681

Legend:
BT-474 Tam1 [1] = test: drug sensitivity score (DSS) (DSS (dimensionless)); higher = more sensitive; extreme values may be limits of the assay; settings: 4-OH-tamoxifen in medium 1 µM; 72 h
Method: (§1)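 FIMM FO2B library drugs were tested at 5 concentrations (10,000-fold range) for 72 h, with CellTiter-Glo viability normalised to DMSO and benzethonium chloride controls. The Drug Sensitivity Score (DSS) is computed from the fitted logistic dose-response curve (area-based; 0 = inactive). Resistant lines and the 'in 1µM tamoxifen' arms were tested in 1 µM 4-OH-tamoxifen.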

BT-474 Tam2 [2] = test: as above; settings: 4-OH-tamoxifen in medium 1 µM; 72 h
Method: as §1

BT-474 [3] = test: as above; settings: 72 h
Method: as §1

MCF-7 Tam1 [4] = test: as above; settings: 4-OH-tamoxifen in medium 1 µM; 72 h
Method: as §1

MCF-7 [5] = test: as above; settings: 72 h
Method: as §1

T-47D Tam1 [6] = test: as above; settings: 4-OH-tamoxifen in medium 1 µM; 72 h
Method: as §1

T-47D Tam2 = test: as above; settings: 4-OH-tamoxifen in medium 1 µM; 72 h
Method: as §1

T-47D [7] = test: as above; settings: 72 h
Method: as §1

ZR-75-1 Tam1 [8] = test: as above; settings: 4-OH-tamoxifen in medium 1 µM; 72 h
Method: as §1

ZR-75-1 Tam2 [9] = test: as above; settings: 4-OH-tamoxifen in medium 1 µM; 72 h
Method: as §1

ZR-75-1 [10] = test: as above; settings: 72 h
Method: as §1

BT-474 Tam1 [11] = test: relative IC50 (midpoint of fitted logistic curve, plateau may be below 50% inhibition; CellTiter-Glo viability); higher = less potent; settings: 4-OH-tamoxifen in medium 1 µM; 72 h
Method: (§2)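 FIMM FO2B library drugs were plated at 5 concentrations spanning a 10,000-fold range in 384-well plates. Cells were incubated for 72 h at 37 °C and viability was read by CellTiter-Glo, normalised to DMSO (0% inhibition) and 100 µM benzethonium chloride (100% inhibition). IC50 values come from logistic dose-response fits (Breeze pipeline). Tamoxifen-resistant lines and the 'in 1µM tamoxifen' parental arms were tested in medium with 1 µM 4-OH-tamoxifen.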

BT-474 Tam2 [12] = test: as above; settings: 4-OH-tamoxifen in medium 1 µM; 72 h
Method: as §2

BT-474 [13] = test: as above; settings: 72 h
Method: as §2

MCF-7 Tam1 [14] = test: as above; settings: 4-OH-tamoxifen in medium 1 µM; 72 h
Method: as §2

MCF-7 [15] = test: as above; settings: 72 h
Method: as §2

T-47D Tam1 [16] = test: as above; settings: 4-OH-tamoxifen in medium 1 µM; 72 h
Method: as §2

T-47D [17] = test: as above; settings: 72 h
Method: as §2

ZR-75-1 Tam1 [18] = test: as above; settings: 4-OH-tamoxifen in medium 1 µM; 72 h
Method: as §2

ZR-75-1 Tam2 [19] = test: as above; settings: 4-OH-tamoxifen in medium 1 µM; 72 h
Method: as §2

ZR-75-1 [20] = test: as above; settings: 72 h
Method: as §2

Compound	drug sensitivity score (BT-474 Tam1 [1])	drug sensitivity score (BT-474 Tam2 [2])	drug sensitivity score (BT-474 [3]; 4-OH-tamoxifen in medium 0 µM)	drug sensitivity score (BT-474 [3]; 4-OH-tamoxifen in medium 1 µM)	drug sensitivity score (MCF-7 Tam1 [4])	drug sensitivity score (MCF-7 [5]; 4-OH-tamoxifen in medium 0 µM)	drug sensitivity score (MCF-7 [5]; 4-OH-tamoxifen in medium 1 µM)	drug sensitivity score (T-47D Tam1 [6])	drug sensitivity score (T-47D Tam2)	drug sensitivity score (T-47D [7]; 4-OH-tamoxifen in medium 0 µM)	drug sensitivity score (T-47D [7]; 4-OH-tamoxifen in medium 1 µM)	drug sensitivity score (ZR-75-1 Tam1 [8])	drug sensitivity score (ZR-75-1 Tam2 [9])	drug sensitivity score (ZR-75-1 [10]; 4-OH-tamoxifen in medium 0 µM)	drug sensitivity score (ZR-75-1 [10]; 4-OH-tamoxifen in medium 1 µM)	relative IC50 (BT-474 Tam1 [11]) [µM]	relative IC50 (BT-474 Tam2 [12]) [µM]	relative IC50 (BT-474 [13]; 4-OH-tamoxifen in medium 0 µM) [µM]	relative IC50 (BT-474 [13]; 4-OH-tamoxifen in medium 1 µM) [µM]	relative IC50 (MCF-7 Tam1 [14]) [µM]	relative IC50 (MCF-7 [15]; 4-OH-tamoxifen in medium 0 µM) [µM]	relative IC50 (T-47D Tam1 [16]) [µM]	relative IC50 (T-47D [17]; 4-OH-tamoxifen in medium 0 µM) [µM]	relative IC50 (T-47D [17]; 4-OH-tamoxifen in medium 1 µM) [µM]	relative IC50 (ZR-75-1 Tam1 [18]) [µM]	relative IC50 (ZR-75-1 Tam2 [19]) [µM]	relative IC50 (ZR-75-1 [20]; 4-OH-tamoxifen in medium 0 µM) [µM]	relative IC50 (ZR-75-1 [20]; 4-OH-tamoxifen in medium 1 µM) [µM]	relative IC50 (MCF-7 [15]; 4-OH-tamoxifen in medium 1 µM) [µM]
CC(C)C(=O)Nc1ccc([N+](=O)[O-])c(C(F)(F)F)c1 [Flutamide]	0	0	0	0	0	0	0.814	0	0.0387	0	0	0	0	0	0	> 10	> 10	> 10	> 10	> 10	> 10	> 10	> 10	> 10	> 10	> 10	> 10	> 10	–
CC(=O)Nc1ccc(C(=O)Nc2ccccc2N)cc1 [Tacedinaline (CI-994)]	0	0	0	0	0	0	0	0	0.132	0	0.0059	0	0	0	0	> 1	> 1	> 1	> 1	> 1	> 1	> 1	> 1	–	> 1	> 1	> 1	> 1	> 1
CC1(C)CNc2cc(NC(=O)c3cccnc3NCc3ccncc3)ccc21 [Motesanib  (AMG-706)]	0	0	0	0	0	0	0	0	0.166	0	0	0	0	0	0	> 10	> 10	> 10	> 10	> 10	> 10	> 10	> 10	> 10	> 10	> 10	> 10	> 10	> 10
CC(O)(CS(=O)(=O)c1ccc(F)cc1)C(=O)Nc1ccc(C#N)c(C(F)(F)F)c1 (centres undefined) [Bicalutamide]	0	0	0	0	0	0	0	0	0.0904	0	0	0	0	0	0	> 10	> 10	> 10	> 10	> 10	> 10	> 10	> 10	–	> 10	> 10	> 10	> 10	> 10
C=C1C[C@@H]2[C@H](CC[C@]3(C)C(=O)CC[C@@H]23)[C@@]2(C)C=CC(=O)C=C12 [Exemestane]	0	0	0	0	0	1.3	0	0	0.965	0	0	0	0	0	0	> 10	> 10	> 10	> 10	> 10	–	> 10	> 10	> 10	> 10	> 10	> 10	> 10	–
CCCS(=O)(=O)Nc1ccc(F)c(C(=O)c2c[nH]c3ncc(-c4ccc(Cl)cc4)cc23)c1F [Vemurafenib (PLX4032)]	0	0	0	0.086	0	0	0	0	1.67	0	0	0	0	0	0	> 10	> 10	> 10	–	> 10	> 10	> 10	> 10	> 10	> 10	> 10	> 10	–	> 10
CC[C@@]1(O)C(=O)OCc2c1cc1n(c2=O)Cc2cc3c(CN(C)C)c(O)ccc3nc2-1 [Topotecan]	0	0	0	0	0	0.567	2.53	5.31	1.16	7.46	0	3.45	4.55	5.48	3.54	> 1	> 1	> 1	> 1	> 1	–	0.1	0.0779	> 1	0.156	0.136	0.0952	0.13	–
